Data published in publication PMC6017705, “Discovery of N-(Naphtho[1,2-b]Furan-5-Yl) Benzenesulfonamides as Novel Selective Inhibitors of Triple-Negative Breast Cancer (TNBC)” (Molecules : A Journal of Synthetic Chemistry and Natural …, 2018).

Assays:
BT-20 = assay: Cell viability assay (CCK-8), BT-20; assay type: cell-based; settings: Homo sapiens, TNBC cell line, CCK-8, 72 h, 0.156 to 40 μM
Description: (§1) Four human TNBC cell lines (MDA-MB-231, MDA-MB-453, SUM-159, and BT-20), a non-TNBC breast cancer cell line (MCF-7) and a normal mammary epithelial cell line (MCF-10A) were cultured with DMEM (phenol free) supplemented with 2.5% CS-FBS and 1% L-Glu. 1.2 × 10^3 of cells were seeded into 384-well microplates and maintained for 24 h in an incubator at 37 °C in a 5% CO2, saturated humidified atmosphere. Different compounds were added into cells with 9 concentrations from 0.156 to 40 μM for 72 h. […] Then CCK-8 solution was added into cells and incubated for another 4 h. Absorbance was measured with a Microplate Reader at 450/600 nm. The IC50 values of the compounds on TNBC cell lines were derived using GraphPad Prism 5.0 (GraphPad Software, Inc., La Jolla, CA, USA).

MDA-MB-453 = assay: Cell viability assay (CCK-8), MDA-MB-453; assay type: cell-based; settings: Homo sapiens, TNBC cell line, CCK-8, 72 h, 0.156 to 40 μM
Description: as §1

MDA-MB-231 = assay: Cell viability assay (CCK-8), MDA-MB-231; assay type: cell-based, human; settings: for IC50 / inhibition at 5 µg/mL: Homo sapiens; for IC50: MDA-MB-231, 72 h, TNBC cell line, CCK-8, 72 h, 0.156 to 40 μM; for inhibition at 5 µg/mL: MDA-MB-231
Description: as §1, with “Different compounds were added into cells with 9 concentrations from 0.156 to 40 μM for 72 h.” left out

SUM-159 = assay: Cell viability assay (CCK-8), SUM-159; assay type: cell-based, human; settings: for IC50 / inhibition at 5 µg/mL: Homo sapiens; for IC50: SUM159, 72 h, TNBC cell line, CCK-8, 72 h, 0.156 to 40 μM; for inhibition at 5 µg/mL: SUM159
Description: as §1, with “Different compounds were added into cells with 9 concentrations from 0.156 to 40 μM for 72 h.” left out

MCF-7 = assay: Cell viability assay (CCK-8), MCF-7; assay type: cell-based, human; settings: Homo sapiens; for IC50: MCF7, 72 h, non-TNBC breast cancer cell line, CCK-8, 72 h; for inhibition at 5 µg/mL: MCF7
Description: as §1, with “Different compounds were added into cells with 9 concentrations from 0.156 to 40 μM for 72 h.” left out

Compound	inhibition at 5 µg/mL (MDA-MB-231) [%]	inhibition at 5 µg/mL (SUM-159) [%]	inhibition at 5 µg/mL (MCF-7) [%]	also measured
CCc1ccc(S(=O)(=O)Nc2cc(SCC(=O)O)c(O)c3ccccc23)cc1 [Compound 2-1]				IC50 (BT-20): 13.3 µM; IC50 (MDA-MB-453): 3.19 µM; IC50 (MDA-MB-231): 4.36 µM; IC50 (SUM-159): 30.8 µM; IC50 (MCF-7): 14 µM
CCOC(=O)c1c(C)oc2c1cc(NS(=O)(=O)c1cc(C)c(C)cc1C)c1ccccc12 [Compound 3-2]	24.3	-0.884	17.7	
Cc1ccc(S(=O)(=O)Nc2cc(SCC(=O)O)c(O)c3ccccc23)cc1 [Compound 2-6]				IC50 (BT-20): 25 µM; IC50 (MDA-MB-453): 3.36 µM; IC50 (MDA-MB-231): 4.97 µM; IC50 (SUM-159): 19.2 µM; IC50 (MCF-7): > 40 µM
Cc1oc2c(cc(NS(=O)(=O)c3ccc(Cl)cc3)c3ccccc32)c1C(=O)O [Compound 3-1]	31.4	-0.754	-12.2	
CCOc1ccc(S(=O)(=O)Nc2cc3c(C(=O)OCCOC)c(C)oc3c3ccccc23)cc1 [Compound 3-23]	62	49.1	14.7	
COC(=O)c1c(C)oc2c1cc(NS(=O)(=O)c1cc(C)ccc1C)c1ccccc12 [Compound 3-15]	45.6	0.037	18.5	
COC(=O)c1c(C)oc2c1cc(NS(=O)(=O)c1ccc(C)cc1C)c1ccccc12 [Compound 3-5]	41.1	0.757	22	
COC(=O)c1c(C)oc2c1cc(NS(=O)(=O)c1ccc(C(=O)O)cc1)c1ccccc12 [Compound 3-34]	11	-0.042	2.85	
COC(=O)c1c(C)oc2c1cc(NS(=O)(=O)c1cc(C)c(C)cc1C)c1ccccc12 [Compound 3-24]	46.6	0.233	34.9	
Cc1oc2c(cc(NS(=O)(=O)c3ccc(C(C)C)cc3)c3ccccc32)c1C(=O)O [Compound 3-32]	24.7	-0.964	-7.57	
Cc1oc2c(cc(NS(=O)(=O)c3ccc(F)cc3)c3ccccc32)c1C(=O)OC(C)C [Compound 3-39]	42.3	-0.193	4.95	
CCOC(=O)c1c(-c2ccccc2)oc2c1cc(NS(=O)(=O)c1ccc(CC)cc1)c1ccccc12 [Compound 3-22]	53.6	-0.556	2.24	
CCOC(=O)c1c(C)oc2c1cc(NS(=O)(=O)c1c(C)cc(C)cc1C)c1ccccc12 [Compound 3-35]	33.9	0.352	24.5	
CCOC(=O)c1c(C)oc2c1cc(NS(=O)(=O)c1ccc(C(C)C)cc1)c1ccccc12 [Compound 3-31]	32.1	-1.33	2.95	
COc1ccc(S(=O)(=O)Nc2cc(SCC(=O)O)c(O)c3ccccc23)cc1 [Compound C10]				IC50 (BT-20): 10.6 µM; IC50 (MDA-MB-453): 2.3 µM
COC(=O)c1c(C)oc2c1cc(NS(=O)(=O)c1ccc(C)cc1)c1ccccc12 [Compound 3-14]	62.8	48.2	10.2	
CCOC(=O)c1c(C)oc2c1cc(NS(=O)(=O)c1ccc3ccccc3c1)c1ccccc12 [Compound 3-6]	43.4	0.292	7.72	
Cc1sc(N)c2c(=O)oc3c4ccccc4ccc3c12 [Compound B09]				growth-inhibitory effect on MDA-MB-231 (in words) (MDA-MB-231): almost no growth-inhibitory effect; IC50 (MDA-MB-231): ~20 µM; growth-inhibitory effect on SUM-159 (in words) (SUM-159): almost no growth-inhibitory effect; IC50 (SUM-159): > 40 µM; IC50 (MCF-7): 1.45 µM
COC(=O)c1c(C)oc2c1cc(NS(=O)(=O)c1ccccc1)c1ccccc12 [Compound 3-30]	50.9	0.862	29.3	
CCc1ccc(S(=O)(=O)Nc2cc3c(C(=O)OC)c(C)oc3c3ccccc23)cc1 [Compound 3-20]	53.5	65.4	31.2	IC50 (MDA-MB-231): 10 µM; IC50 (SUM-159): 17 µM
COC(=O)c1c(C)oc2c1cc(NS(=O)(=O)c1ccc(Br)cc1)c1ccccc12 [Compound 3-29]	45	1.32	14.5	
